Source: patent US7507753B2, “Biaryl compound and use thereof” (Takeda Chemical Industries Ltd., priority 2001, dated 2009)
Counter-ions that a name gives are not always drawn.

The compounds below were run against T1, Human MC4R (Homo sapiens, UniProt P32245) (assay: [125I]-[Nle4,D-Phe7]-α-MSH binding inhibition in CHO/MC4R cells). Conditions: test compound 10 μM, 100 pM [125I]-[Nle4,D-Phe7]-α-MSH, room temperature, 60 minutes.
T1 construct: expressed in transfected cells; plasmid pMC4R in vector pMSR alpha neo
T1 sequence (P32245 whole entry): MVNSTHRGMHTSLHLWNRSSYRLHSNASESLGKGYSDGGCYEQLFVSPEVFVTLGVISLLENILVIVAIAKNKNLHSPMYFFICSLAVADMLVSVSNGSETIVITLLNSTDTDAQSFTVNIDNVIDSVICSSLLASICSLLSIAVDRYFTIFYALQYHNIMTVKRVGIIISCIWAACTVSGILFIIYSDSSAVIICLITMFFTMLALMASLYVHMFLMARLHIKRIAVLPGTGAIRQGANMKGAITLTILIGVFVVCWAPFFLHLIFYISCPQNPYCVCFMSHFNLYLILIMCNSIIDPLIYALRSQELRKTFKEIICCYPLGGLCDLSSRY
Description: (1) Cloning of Human MC4R
Cloning of MC4R gene was conducted from human brain cDNA by PCR method. Using 0.5 ng of brain cDNA (Clontech, Quick-lone cDNA) as a genetic template, primer sets prepared by referring to MC4R gene base sequence described in Birkenbach M. et al. (J. Virol, 67(4),2209-2220(1993)), i.e., primer-1: 5′-[…]-3′ [Sequence No.:1] and primer-2: 5′-[…]-3′ [Sequence No.:2] were added in amounts of 50 pmol, respectively, and, the PCR reaction was carried out using TaKaRa LA Taq(Takara Shuzo)in Gene Amp PCR System 9600 (Applied Biosystems)(Reaction conditions: 35 cycles of 95° C. for 1 minute, 62° C. for 1 minute, and 72° C. for 3 minutes).
(2) Preparation of Expression Plasmid for Human MC4R
After the PCR fragments obtained above were digested by restriction enzymes Eco RI (Takara Shuzo) and Sal I (Takara Shuzo), DNA fragments were collected by agarose gel electrophoresis. The DNA fragments and an expression plasmid for animal cells pMSR a neo (Japanese Unexamined Patent Application Publication No. 2000-281685, WO 00/44756), which was previously digested by Eco RI and Sal I, were mixed and ligated using a DNA Ligation Kit Ver. 2 (Takara Shuzo). Transformation of E. coli JM109 competent cells gave plasmid pMC4R.
(3) Introduction of the Expression Plasmid for Human MC4R into CHO-K1 Cells and Expression thereof
CHO-KI cells grown in 150 cm^2 of a cell culture flask (Corning Costar) using Ham F12 medium (GIBCO BRL) containing 10% fetal bovine serum (GIBCO BRL) were collected by using 0.5 g/L trypsin-0.2 g/L EDTA (GIBCO BRL). The cells were washed with PBS (GIBCO BRL), centrifuged (1000 rpm, 5 minutes), and were suspended in PBS. Then, the DNA was introduced into the cells using Gene Pulser (BioRad) according to the following conditions. Namely, 1×10^7 cells and 15 μg of human MC4R expression plasmid pMC4R were placed in a 0.4-cm gap cuvette, and the mixture was electropolated under 0.25 kV of electric voltage, and 960 μF of capacitance. Cells were then transferred to Ham F12 medium containing 10% fetal bovine serum. After incubation for 24 hours, cells were collected, centrifuged, and suspended in Ham F12 medium containing 10% fetal bovine serum and Geneticin (GIBCO BRL) at a concentration of 500 μg/ml. Cells were diluted to a concentration of 10^4 cells/ml, and inoculated in 96-well plate (Corning Costar) to obtain Geneticin-resistant strains.
The Geneticin-resistant strains were grown in 96-well plates (OPAQUE PLATE 3917, Costar), and MC4R-expressing cells were selected from the resistant strains. Namely, in an assay buffer (20 mM HEPES (Dojindo Laboratories, Inc.), 0.5% BSA, 0.05% NaN3) containing 200 pM [^125I]-[Nle4,D-Phe7]-α-Melanocyte Stimulating Hormone (Daiichi Pure Chemicals Co., Ltd.), the cells were subjected to binding reaction at room temperature for 60 minutes. After the assay buffer was removed by inspiration, the cells were washed with ice-cooled PBS, and then stirred after adding 100 μl/well of MicroScint-20 (Packard Industry Company, Inc.) to each well. Subsequently, the cells were counted for radioactivity using a Top Count (Packard) to select CHO/MC4R strains, the cells to which [^125I]-[Nle4,D-Phe7]-α-Melanocyte Stimulating Hormone bound specifically. […]
The CHO/MC4R strains were inoculated in 96 well microplate at a concentration of 1×10^4 cells/well, and grown for 72 hours. […] Then, 100 μl MicroScint 20 (Packerd) was added to each well, and the radioactivity of each well was measured by Top Count (Packard). […]
With `CC(c1cccc(-c2ccccc2C(=O)NCCN)c1)N(C(=O)Cc1ccc(Br)cc1)C1CCN(Cc2ccccc2)CC1` (centres unmarked) [Example 2, N-(2-aminoethyl) -3′-[1-{N-(1-benzylpiperidin-4-yl)-N-(4-bromophenylacetyl)amino}ethyl][1,1′-biphenyl]-2-carboxamide dihydrochloride] the “Binding Inhibitory Ratio” value was 97%. For `CC(c1cccc(-c2ccccc2C(=O)NCCN)c1)N(C(=O)Cc1ccc(Cl)cc1)C1CCN(Cc2ccccc2)CC1` (centres unmarked) [Example 3, N-(2-aminoethyl)-3′-[1-{N-(1-benzylpiperidin-4-yl)-N-(4-chlorophenylacetyl)amino}ethyl][1,1′-biphenyl]-2-carboxamide dihydrochloride], the “Binding Inhibitory Ratio” value was 97%. In the case of `CC(c1cccc(-c2ccccc2C(=O)NCCN)c1)N(C(=O)Cc1ccc(Cl)c(Cl)c1)C1CCN(Cc2ccccc2)CC1` (centres unmarked) [Example 9, N-(2-aminoethyl)-3′-[1-{N-(1-benzylpiperidin-4-yl)-N-(3,4-dichlorophenylacetyl)amino}ethyl][1,1′-biphenyl]-2-carboxamide dihydrochloride], the “Binding Inhibitory Ratio” value is reported as 100%. In the case of `CC(c1cccc(-c2ccccc2C(=O)NCCN)c1)N(C(=O)Cc1cccc(Cl)c1)C1CCN(Cc2ccccc2)CC1` (centres unmarked) [Example 4, N-(2-aminoethyl)-3′-[1-(N-(1-benzylpiperidin-4-yl)-N-(3-chlorophenylacetyl)amino}ethyl][1,1′-biphenyl]-2-carboxamide dihydrochloride], the “Binding Inhibitory Ratio” value is reported as 92%. For `CC(c1cccc(-c2ccccc2C(=O)NCCN)c1)N(C(=O)Cc1ccc2ccccc2c1)C1CCN(Cc2ccccc2)CC1` (centres unmarked) [Example 1, N-(2-aminoethyl)-3′-[1-{N-(1-benzylpiperidin-4-yl)-N-(2-naphthylacetyl)amino}ethyl][1,1′-biphenyl)-2-carboxamide dihydrochloride], the “Binding Inhibitory Ratio” value was 96%.
